Consider 12 compounds from ChEMBL document CHEMBL5223143, “Identification of novel benzimidazole derivatives as highly potent AMPK activators with anti-diabetic profiles” (Bioorg Med Chem Lett, 2023).

For series [1], the target named is AMPK alpha2/beta2/gamma1 (Homo sapiens) (UniProt P54646+O43741+P54619). Briefly: Activation of human recombinant AMPK A2/B2/G1 assessed as increase in AMPK phosphorylation using FL-peptide as substrate incubated for 120 mins by EZ reader method. The series is classed as protein-complex assay. The following applies: filed as activator.
In another series the test system is L6. In words: Activation of AMPK alpha2beta2gamma1 in rat L6 cells assessed as increase in AMPK phosphorylation by ELISA assay. Format: cell-based. The following applies: filed as activator.
The next series deals with T1, Cytochrome P450 1A2 (Homo sapiens, UniProt P05177).
T1 sequence (P05177 whole entry): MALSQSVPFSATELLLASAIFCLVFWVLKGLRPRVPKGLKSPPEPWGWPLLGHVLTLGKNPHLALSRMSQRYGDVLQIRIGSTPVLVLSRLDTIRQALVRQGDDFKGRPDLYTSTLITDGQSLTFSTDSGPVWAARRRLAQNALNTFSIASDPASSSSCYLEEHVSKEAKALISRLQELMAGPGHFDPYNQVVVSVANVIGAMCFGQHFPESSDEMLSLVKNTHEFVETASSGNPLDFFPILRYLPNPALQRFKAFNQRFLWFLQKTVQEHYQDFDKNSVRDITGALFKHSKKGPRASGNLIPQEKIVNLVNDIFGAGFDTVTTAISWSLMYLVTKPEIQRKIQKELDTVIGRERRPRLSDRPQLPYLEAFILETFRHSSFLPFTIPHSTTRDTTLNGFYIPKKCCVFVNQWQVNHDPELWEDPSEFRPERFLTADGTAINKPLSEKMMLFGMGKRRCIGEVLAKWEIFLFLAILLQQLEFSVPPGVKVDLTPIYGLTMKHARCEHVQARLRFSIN
Briefly: Inhibition of CYP1A2 in human liver microsomes using 7-ethoxyresorufin as substrate. The series is classed as ADME, Microsome. (In general: Liver microsomes are vesicles of endoplasmic reticulum, rich in cytochrome P450 enzymes.)

The next series concerns the target Cytochrome P450 2C9 (Homo sapiens, UniProt P11712). Briefly: Inhibition of CYP2C9 in human liver microsomes using tolbutamide as substrate. The series is classed as ADME, Microsome.
Another series concerns the target Cytochrome P450 2C19 (Homo sapiens, UniProt P33261). Briefly: Inhibition of CYP2C19 in human liver microsomes using mephenytoin as substrate. Format: ADME, Microsome.
For a further series, the target named is Cytochrome P450 2D6 (Homo sapiens, UniProt P10635). Briefly: Inhibition of CYP2D6 in human liver microsomes using dextromethorphan as substrate. The series is classed as ADME, Microsome.
A further series addresses Cytochrome P450 3A4 (Homo sapiens, UniProt P08684). In words: Inhibition of CYP3A4 in human liver microsomes using terfenedine as substrate. The series is classed as ADME, Microsome.
Series [2] can be described thus: Metabolic stability in human liver microsomes assessed as compound remaining incubated for 30 mins. As to conditions: read-out: Stability. The series is classed as ADME, Microsome.
Series [3] is described as follows: Metabolic stability in rat liver microsomes assessed as compound remaining incubated for 30 mins. The series is classed as ADME, Microsome. The following applies: read-out: Stability.
Series [4] can be described thus: Protein binding in serum (unknown origin) assessed as free fraction by equilibrium dialysis method. The series is classed as ADME, cell-free. (Equilibrium dialysis compares concentrations on both sides of a semipermeable membrane.)
Series [5] in a line: Total clearance in rat at 0.5 mg/kg,iv. Format: ADME, organism-based. The following applies: in vivo.
Series [6] is described as follows: AUC in rat at 1 mg/kg,po. The following applies: in vivo. The series is classed as ADME, organism-based. More on the design: dose 1 mg/kg, route po.
Series [7] can be described thus: Cmax in rat at 0.5 mg/kg,iv. The following applies: in vivo. More on the design: dose 0.5 mg/kg, route iv. The series is classed as ADME, organism-based.
Series [8] is described as follows: […] in rat liver at 0.5 mg/kg,iv. The series is classed as ADME, organism-based.
The nature of series [9]: […] in rat muscle tissue at 0.5 mg/kg,iv. Format: ADME, organism-based.
The test system of series [10] is Mus musculus. Briefly: Antidiabetic activity against diabetic KKAy mouse model assessed as increase in ACC phosphorylation in skeletal muscle at 0.3 to 3 mg/kg,po bid. Format: functional, organism-based. As to conditions: dose 0.3-3 mg/kg.
In series [11] the test system is Mus musculus. In words: Antidiabetic activity against diabetic KKAy mouse model assessed as acute glucose lowering effect at 0.3 to 3 mg/kg,po bid. Format: functional, organism-based. The following applies: dose 0.3-3 mg/kg.
The test system of series [12] is Mus musculus. In words: Antidiabetic activity against diabetic KKAy mouse model assessed as decrease in HbA1c level at 0.3 to 3 mg/kg,po bid observed upto 21 days. The following applies: dose 0.3-3 mg/kg, time <= 21.0 day. Format: functional, organism-based.
Series [13] concerns Mus musculus. Briefly: Antidiabetic activity against diabetic KKAy mouse model assessed as decrease in plasma glucose level at 0.3 to 3 mg/kg,po bid observed upto 21 days. Format: functional, organism-based. The following applies: dose 0.3-3 mg/kg, time <= 21.0 day.

Calls of active or inactive are those of the source. The rule behind the calls is not given here.

AMPK alpha2/beta2/gamma1 (Homo sapiens), sequence (O43741 whole entry, looked up): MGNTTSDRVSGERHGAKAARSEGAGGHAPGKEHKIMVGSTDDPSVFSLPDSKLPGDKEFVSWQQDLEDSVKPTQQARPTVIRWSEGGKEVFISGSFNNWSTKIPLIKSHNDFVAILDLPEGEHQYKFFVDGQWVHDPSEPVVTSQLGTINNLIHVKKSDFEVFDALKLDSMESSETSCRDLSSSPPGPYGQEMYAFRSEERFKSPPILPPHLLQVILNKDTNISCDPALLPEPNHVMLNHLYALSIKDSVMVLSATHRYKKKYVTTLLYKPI
AMPK alpha2/beta2/gamma1 (Homo sapiens), sequence (P54619 whole entry, looked up): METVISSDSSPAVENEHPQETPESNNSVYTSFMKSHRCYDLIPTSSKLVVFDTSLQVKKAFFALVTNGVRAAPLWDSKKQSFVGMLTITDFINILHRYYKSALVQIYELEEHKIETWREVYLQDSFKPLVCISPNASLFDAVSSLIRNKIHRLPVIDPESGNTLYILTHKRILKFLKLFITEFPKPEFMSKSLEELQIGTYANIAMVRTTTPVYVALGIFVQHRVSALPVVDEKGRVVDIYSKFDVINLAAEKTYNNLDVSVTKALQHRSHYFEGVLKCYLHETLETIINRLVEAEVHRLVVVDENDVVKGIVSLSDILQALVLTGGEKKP
AMPK alpha2/beta2/gamma1 (Homo sapiens), sequence (P54646 whole entry, looked up): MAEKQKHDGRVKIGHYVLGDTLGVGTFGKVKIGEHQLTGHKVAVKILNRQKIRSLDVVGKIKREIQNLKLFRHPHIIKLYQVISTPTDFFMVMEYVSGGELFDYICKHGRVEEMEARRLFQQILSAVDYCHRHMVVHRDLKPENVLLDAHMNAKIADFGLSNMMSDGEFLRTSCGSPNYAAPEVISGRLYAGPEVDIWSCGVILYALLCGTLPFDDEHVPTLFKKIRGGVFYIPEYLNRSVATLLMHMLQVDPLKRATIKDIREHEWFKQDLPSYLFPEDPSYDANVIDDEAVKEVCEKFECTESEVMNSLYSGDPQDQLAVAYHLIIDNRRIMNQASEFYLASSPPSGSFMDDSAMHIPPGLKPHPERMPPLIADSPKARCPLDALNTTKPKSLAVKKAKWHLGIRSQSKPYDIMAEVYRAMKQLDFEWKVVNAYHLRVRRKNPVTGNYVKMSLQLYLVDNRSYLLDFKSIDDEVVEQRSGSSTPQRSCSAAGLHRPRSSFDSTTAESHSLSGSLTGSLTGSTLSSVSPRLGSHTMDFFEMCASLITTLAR
Cytochrome P450 3A4, sequence (P08684 whole entry): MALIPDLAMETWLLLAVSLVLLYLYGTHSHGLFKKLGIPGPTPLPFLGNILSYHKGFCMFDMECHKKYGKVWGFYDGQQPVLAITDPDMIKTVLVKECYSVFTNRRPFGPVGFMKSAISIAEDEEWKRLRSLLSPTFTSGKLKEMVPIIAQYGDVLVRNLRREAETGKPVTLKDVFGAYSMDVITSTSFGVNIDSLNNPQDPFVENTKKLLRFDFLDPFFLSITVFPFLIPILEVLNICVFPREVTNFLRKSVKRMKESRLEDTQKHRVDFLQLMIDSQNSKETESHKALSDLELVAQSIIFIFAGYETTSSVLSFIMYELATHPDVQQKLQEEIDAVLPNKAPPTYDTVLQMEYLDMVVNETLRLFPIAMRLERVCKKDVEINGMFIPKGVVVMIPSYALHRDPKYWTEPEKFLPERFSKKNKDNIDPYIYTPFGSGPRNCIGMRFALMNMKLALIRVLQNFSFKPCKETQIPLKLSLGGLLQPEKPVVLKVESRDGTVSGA
Cytochrome P450 2D6, sequence (P10635 whole entry): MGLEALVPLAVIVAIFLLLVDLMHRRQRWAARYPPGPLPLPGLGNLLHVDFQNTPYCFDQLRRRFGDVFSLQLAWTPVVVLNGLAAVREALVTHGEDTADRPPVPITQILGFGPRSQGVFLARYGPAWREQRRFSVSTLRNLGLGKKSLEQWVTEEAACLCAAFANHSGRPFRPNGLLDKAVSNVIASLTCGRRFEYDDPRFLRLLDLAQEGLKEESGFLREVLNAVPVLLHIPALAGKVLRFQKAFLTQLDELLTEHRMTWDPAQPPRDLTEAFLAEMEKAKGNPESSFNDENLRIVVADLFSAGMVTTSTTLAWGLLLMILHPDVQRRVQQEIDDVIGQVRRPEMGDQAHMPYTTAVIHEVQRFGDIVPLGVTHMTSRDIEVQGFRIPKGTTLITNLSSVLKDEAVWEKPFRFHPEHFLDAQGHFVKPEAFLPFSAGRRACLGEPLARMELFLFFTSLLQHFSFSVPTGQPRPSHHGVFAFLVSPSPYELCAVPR
Cytochrome P450 2C19, sequence (P33261 whole entry): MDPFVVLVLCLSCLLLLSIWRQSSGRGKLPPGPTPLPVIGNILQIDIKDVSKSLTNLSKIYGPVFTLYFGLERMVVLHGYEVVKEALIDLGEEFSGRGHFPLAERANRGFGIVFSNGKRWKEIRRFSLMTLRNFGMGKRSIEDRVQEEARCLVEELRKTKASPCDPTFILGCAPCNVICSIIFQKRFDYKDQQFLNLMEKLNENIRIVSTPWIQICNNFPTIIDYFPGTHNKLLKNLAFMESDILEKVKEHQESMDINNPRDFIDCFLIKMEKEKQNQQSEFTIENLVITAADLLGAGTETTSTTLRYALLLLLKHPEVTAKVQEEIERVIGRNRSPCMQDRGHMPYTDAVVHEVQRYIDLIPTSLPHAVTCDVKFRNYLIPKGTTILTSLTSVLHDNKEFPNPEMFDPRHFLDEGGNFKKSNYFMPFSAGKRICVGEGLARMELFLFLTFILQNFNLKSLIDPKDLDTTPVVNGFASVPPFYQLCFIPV
Cytochrome P450 2C9, sequence (P11712 whole entry): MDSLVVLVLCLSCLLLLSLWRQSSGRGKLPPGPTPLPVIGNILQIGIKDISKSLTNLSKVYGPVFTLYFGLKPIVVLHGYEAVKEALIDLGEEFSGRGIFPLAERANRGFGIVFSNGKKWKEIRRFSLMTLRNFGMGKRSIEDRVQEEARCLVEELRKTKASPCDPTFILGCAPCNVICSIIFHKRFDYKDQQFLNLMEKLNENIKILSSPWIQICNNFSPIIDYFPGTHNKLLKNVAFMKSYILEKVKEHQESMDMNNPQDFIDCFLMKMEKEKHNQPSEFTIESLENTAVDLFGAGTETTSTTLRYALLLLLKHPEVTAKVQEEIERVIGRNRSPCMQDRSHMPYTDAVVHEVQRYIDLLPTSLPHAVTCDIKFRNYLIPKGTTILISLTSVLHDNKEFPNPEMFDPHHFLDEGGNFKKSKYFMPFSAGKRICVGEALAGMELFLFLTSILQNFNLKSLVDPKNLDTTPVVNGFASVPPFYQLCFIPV

For the compound `Cn1cc(-c2cc(F)c3c(c2)CC[C@@H]3Nc2nc3nc(O[C@@H]4CO[C@H]5[C@@H]4OC[C@H]5O)[nH]c3cc2Cl)cn1`, the figures for the EC150 (in series [1]; with L6) were 0.0044 µM and 0.0847 µM, respectively.
Turning to `O[C@@H]1CO[C@H]2[C@@H]1OC[C@H]2Oc1nc2nc(N[C@H]3CCc4cccc(F)c43)c(Cl)cc2[nH]1`, the EC150 in series [1] came out at 0.002 µM; in the series on L6 it was 1.06 µM.
For `CN(Cc1ccccc1)c1nc2nc(O[C@@H]3CO[C@H]4[C@@H]3OC[C@H]4O)[nH]c2cc1Cl`, the EC150 in series [1] was determined as 4.9 µM.
The same measure, in the same setting: for `O[C@@H]1CO[C@H]2[C@@H]1OC[C@H]2Oc1nc2nc(NCCCc3ccccc3)c(Cl)cc2[nH]1` the value was 15 µM; for `O[C@@H]1CO[C@H]2[C@@H]1OC[C@H]2Oc1nc2nc(N[C@H]3CCc4ccccc43)c(Cl)cc2[nH]1`, 0.0031 µM.
The same measure, in the same setting: for `O[C@@H]1CO[C@H]2[C@@H]1OC[C@H]2Oc1nc2nc(NCc3ccccc3C(F)(F)F)c(Cl)cc2[nH]1` the value was 8.9 µM.
As for `OCc1ccccc1CNc1nc2nc(O[C@@H]3CO[C@H]4[C@@H]3OC[C@H]4O)[nH]c2cc1Cl`, the EC150 in [1] stood at 9.5 µM.
Still for that read-out and setting: the value for `O[C@@H]1CO[C@H]2[C@@H]1OC[C@H]2Oc1nc2nc(NCc3ccccc3)c(Cl)cc2[nH]1` was 0.16 µM.
For `COCCOc1cc(F)c2c(c1)CC[C@@H]2Nc1nc2nc(O[C@@H]3CO[C@H]4[C@@H]3OC[C@H]4O)[nH]c2cc1Cl`, the EC150 worked out at 0.0016 µM in series [1] and 0.0443 µM with L6. For the same compound, the IC50 at Cytochrome P450 1A2, against Cytochrome P450 2C9, against Cytochrome P450 2C19, against Cytochrome P450 2D6 and against Cytochrome P450 3A4 was above 20 µM in each case. Besides, the remaining at 0.5 h in series [2] amounted to 91%; in [3] it was 81%. The fraction unbound in [4] is 0.031. The clearance in [5] was 9.02 mL/min/kg. Besides, the AUC in series [6] is 347 ng·h/mL. Moreover, the Cmax in series [7] was found to be 65.4 ng/mL. Also, the results for the Kp in [8] and in series [9] were 5.64 and 1.51, respectively. In addition, the Activity result with Mus musculus [10] and with Mus musculus [12] was “Dose-Dependent Effect” in each case. Besides, the result in the series on Mus musculus [11] and in the series on Mus musculus [13] was Active.
Take `O[C@@H]1CO[C@H]2[C@@H]1OC[C@H]2Oc1nc2nc(NCc3ccccc3F)c(Cl)cc2[nH]1`: the EC150 in [1] was found to be 0.048 µM.
For `CS(=O)(=O)c1ccccc1CNc1nc2nc(O[C@@H]3CO[C@H]4[C@@H]3OC[C@H]4O)[nH]c2cc1Cl`, the EC150 in series [1] was found to be 23 µM.
`CC(=O)Nc1cc(F)c2c(c1)CC[C@@H]2Nc1nc2nc(O[C@@H]3CO[C@H]4[C@@H]3OC[C@H]4O)[nH]c2cc1Cl`: the results for the EC150 (in [1]; in the series on L6) were 0.0047 µM and 0.584 µM, respectively.

A word on the IC50: it is the concentration at which inhibition is half-maximal. A lower IC50 goes with higher potency. The term fraction unbound denotes free concentration divided by total concentration. As usually defined, the clearance is a measure of how efficiently the substance is removed, as volume per time. Read a high clearance as efficient removal. Usually AUC stands for concentration integrated over time. A high value points to high exposure. As usually defined, the Cmax is the maximum level reached in the sampled fluid or tissue.
